Results from ChEMBL document CHEMBL5241112, “Insights into the recent progress in the medicinal chemistry of pyranopyrimidine analogs” (RSC Med Chem, 2022).
pIC50: −log10 of the molar value. Converted amounts (≈) assume the structure as drawn.

Columns and labels:
Urease = Urease (Canavalia ensiformis, UniProt P07374); assay: Inhibition of jack bean urease by phenol red method
[1] = Antioxidant activity assessed as H2O2 radical scavenging activity; assay type: functional
[2] = Antioxidant activity assessed as NO radical scavenging activity; assay type: functional
Staphylococcus aureus [3] = assay: Antibacterial activity against Staphylococcus aureus assessed as diameter of inhibition zone; assay type: functional
Escherichia coli [4] = assay: Antibacterial activity against Escherichia coli assessed as diameter of inhibition zone; assay type: functional
Bacillus cereus = assay: Antimicrobial activity against Bacillus cereus ATCC14579 assessed as diameter of inhibition zone at 20 mg/ml incubated for 24 hrs by disk diffusion method; assay type: functional; conditions: read-out: DIZ
Salmonella typhimurium = assay: Antibacterial activity against Salmonella typhimurium assessed as diameter of inhibition zone; assay type: functional, Salmonella enterica subsp. enterica serovar Typhimurium
Staphylococcus aureus [5] = assay: Antimicrobial activity against Staphylococcus aureus NCTC7447 assessed as diameter of inhibition zone at 20 mg/ml incubated for 24 hrs by disk diffusion method; assay type: functional; conditions: read-out: DIZ
Bacillus subtilis = assay: Antibacterial activity against Bacillus subtilis assessed as diameter of inhibition zone; assay type: functional
Pseudomonas aeruginosa = assay: Antimicrobial activity against Pseudomonas aeruginosa ATCC 27853 assessed as diameter of inhibition zone at 20 mg/ml incubated for 24 hrs by disk diffusion method; assay type: functional; conditions: read-out: DIZ
Klebsiella pneumoniae = assay: Antimicrobial activity against Klebsiella pneumoniae UC57 assessed as diameter of inhibition zone at 20 mg/ml incubated for 24 hrs by disk diffusion method; assay type: functional; conditions: read-out: DIZ
Escherichia coli [6] = assay: Antimicrobial activity against Escherichia coli ATCC 14169 assessed as diameter of inhibition zone at 20 mg/ml incubated for 24 hrs by disk diffusion method; assay type: functional; conditions: read-out: DIZ
MCF7 [7] = assay: cells; conditions: Homo sapiens, MCF7, 48 h
HeLa = assay: Anticancer activity against human HeLa cells assessed as reduction in cell viability incubated for 48 hrs by MTT assay; assay type: functional, cell-based
Capra hircus = organism: Capra hircus; assay: Inhibition of goat lens AR at 100 uM incubated for 10 mins in presence of NADPH by spectroscopic analysis
[8] = Antioxidant activity assessed as hydroxyl radical scavenging activity incubated for 5 mins by spectrophotometric analysis; assay type: functional; parameters: concentration or dose not given beside the values
[9] = Antioxidant activity assessed as DPPH radical scavenging activity incubated for 20 mins by spectrophotometric analysis; assay type: functional; parameters: concentration or dose not given beside the values
HCT-116 = assay: Anticancer activity against human HCT-116 cells assessed as reduction in cell viability incubated for 96 hrs by MTT assay; assay type: functional, cell-based; conditions: HCT-116, 96 h
MCF7 [10] = assay: cells; assay type: functional, cell-based; conditions: Homo sapiens, MCF7, 96 h

Chain of Urease (P07374 whole entry): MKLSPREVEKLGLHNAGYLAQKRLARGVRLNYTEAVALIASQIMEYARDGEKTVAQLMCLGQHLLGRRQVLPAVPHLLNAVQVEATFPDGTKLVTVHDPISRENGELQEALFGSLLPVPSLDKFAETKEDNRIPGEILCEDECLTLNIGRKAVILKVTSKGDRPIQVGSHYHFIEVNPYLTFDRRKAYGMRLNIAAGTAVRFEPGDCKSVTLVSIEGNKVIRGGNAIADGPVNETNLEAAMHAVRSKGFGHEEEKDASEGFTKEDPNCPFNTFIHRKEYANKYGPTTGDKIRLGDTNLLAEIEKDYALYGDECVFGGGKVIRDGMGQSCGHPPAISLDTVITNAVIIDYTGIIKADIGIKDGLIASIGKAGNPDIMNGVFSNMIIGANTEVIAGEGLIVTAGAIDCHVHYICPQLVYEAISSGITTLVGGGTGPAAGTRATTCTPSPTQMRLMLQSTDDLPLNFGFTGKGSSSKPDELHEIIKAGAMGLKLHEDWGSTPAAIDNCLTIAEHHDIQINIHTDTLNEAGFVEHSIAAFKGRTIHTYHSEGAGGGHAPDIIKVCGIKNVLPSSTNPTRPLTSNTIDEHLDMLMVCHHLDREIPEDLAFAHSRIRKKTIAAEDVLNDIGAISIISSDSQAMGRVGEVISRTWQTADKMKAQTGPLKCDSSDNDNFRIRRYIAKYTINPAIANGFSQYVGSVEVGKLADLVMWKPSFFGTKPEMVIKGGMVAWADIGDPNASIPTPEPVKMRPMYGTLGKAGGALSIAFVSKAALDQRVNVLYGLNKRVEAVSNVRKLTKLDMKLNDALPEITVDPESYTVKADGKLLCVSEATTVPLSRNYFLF

SMILES: CN1C(=O)C2C(c3ccccc3)C(C#N)=C(N)OC2N(C)C1=O (stereo not given)
- pIC50 (Urease): 4.01

SMILES: COc1cc(C2C(C#N)=C(N)Oc3cc(O)ccc32)ccc1O (stereo not given)
- IC50 [1]: 53.54 µg/mL (≈ 173 µM)
- IC50 [2]: 50.32 µg/mL (≈ 162 µM)

SMILES: N#CC1=C(N)Oc2[nH]c(=O)[nH]c(=O)c2C1c1cccc([N+](=O)[O-])c1 (stereo not given)
- diameter of the inhibition zone (DIZ) (Staphylococcus aureus [3]): 14 mm
- diameter of the inhibition zone (DIZ) (Escherichia coli [4]): 10 mm
- zone of inhibition at 20000 µg/mL (Bacillus cereus): 14 mm
- diameter of the inhibition zone (DIZ) (Salmonella typhimurium): 14 mm
- zone of inhibition at 20000 µg/mL (Staphylococcus aureus [5]): 7 mm
- diameter of the inhibition zone (DIZ) (Bacillus subtilis): 12 mm
- zone of inhibition at 20000 µg/mL (Pseudomonas aeruginosa): 11 mm
- zone of inhibition at 20000 µg/mL (Klebsiella pneumoniae): 6 mm
- pIC50 (Urease): 4.00
- zone of inhibition at 20000 µg/mL (Escherichia coli [6]): 11 mm

SMILES: N#CC1=C(N)Oc2[nH]c(=O)[nH]c(=O)c2C1c1ccc(Cl)cc1Cl (stereo not given)
- pIC50 (Urease): 4.71

SMILES: O=C1Nc2c(c(=O)oc3ccccc23)C(c2ccccc2O)N1 (stereo not given)
- pIC50 (MCF7 [7]): 4.42
- pIC50 (HeLa): 4.42

SMILES: O=C1Nc2c(c(=O)oc3ccccc23)C(c2ccccc2)N1 (stereo not given)
- pIC50 (MCF7 [7]): 4.48
- pIC50 (HeLa): 4.34

SMILES: CCOc1ccc(C2C(C#N)=C(N)Oc3cc(O)ccc32)cc1 (stereo not given)
- IC50 [1]: 53.54 µg/mL (≈ 174 µM)

SMILES: O=c1[nH]c2c(c(=O)[nH]1)Oc1c(c(=O)oc3ccccc13)C2c1cccc([N+](=O)[O-])c1 (stereo not given)
- inhibition (Capra hircus): 59%
- Activity [8]: 54.3%
- Activity [9]: 59.1%

SMILES: COc1ccc(C2NC(=O)Nc3c2c(=O)oc2ccccc32)cc1OC (stereo not given)
- pIC50 (MCF7 [7]): 4.42
- pIC50 (HeLa): 4.42

SMILES: O=c1[nH]c2c(c(=O)[nH]1)Oc1c(c(=O)oc3ccccc13)C2c1ccc(Cl)cc1 (stereo not given)
- inhibition (Capra hircus): 47%
- Activity [8]: 68.3%
- Activity [9]: 71.5%

SMILES: O=C1Nc2c(c(=O)oc3ccccc23)C(c2ccc(Br)cc2)N1 (stereo not given)
- pIC50 (MCF7 [7]): 4.42
- pIC50 (HeLa): 4.23

SMILES: O=C1Nc2c(c(=O)oc3ccccc23)C(c2ccc(Cl)cc2)N1 (stereo not given)
- pIC50 (MCF7 [7]): 4.48
- pIC50 (HeLa): 4.34

SMILES: Cc1ccc(C2C(C#N)=C(N)Oc3[nH]c(=O)[nH]c(=O)c32)cc1 (stereo not given)
- diameter of the inhibition zone (DIZ) (Salmonella typhimurium): 8 mm
- diameter of the inhibition zone (DIZ) (Bacillus subtilis): 10 mm
- pIC50 (Urease): 4.14

SMILES: O=C1Nc2c(c(=O)oc3ccccc23)C(c2cccc(O)c2)N1 (stereo not given)
- pIC50 (MCF7 [7]): 4.42
- pIC50 (HeLa): 4.05

SMILES: COc1ccc(C2C(C#N)=C(N)Oc3cc(O)ccc32)cc1 (stereo not given)
- IC50 [1]: 53.54 µg/mL (≈ 182 µM)

SMILES: N#CC1=C(N)Oc2[nH]c(=O)[nH]c(=O)c2C1c1ccc(Br)cc1 (stereo not given)
- diameter of the inhibition zone (DIZ) (Staphylococcus aureus [3]): 18 mm
- diameter of the inhibition zone (DIZ) (Escherichia coli [4]): 12 mm
- zone of inhibition at 20000 µg/mL (Bacillus cereus): 4 mm
- diameter of the inhibition zone (DIZ) (Salmonella typhimurium): 16 mm
- zone of inhibition at 20000 µg/mL (Staphylococcus aureus [5]): 12 mm
- diameter of the inhibition zone (DIZ) (Bacillus subtilis): 14 mm
- zone of inhibition at 20000 µg/mL (Pseudomonas aeruginosa): 4 mm
- zone of inhibition at 20000 µg/mL (Klebsiella pneumoniae): 3 mm
- pIC50 (Urease): 4.29
- zone of inhibition at 20000 µg/mL (Escherichia coli [6]): 6 mm

SMILES: Nc1ncnc2c1C(c1ccc(Br)cc1)c1ccc(O)cc1O2 (stereo not given)
- IC50 [2]: 50.32 µg/mL (≈ 136 µM)

SMILES: O=c1[nH]c2c(c(=O)[nH]1)Oc1c(c(=O)oc3ccccc13)C2c1ccc([N+](=O)[O-])cc1 (stereo not given)
- inhibition (Capra hircus): 39%
- Activity [8]: 54.3%
- Activity [9]: 59.1%

SMILES: N#CC1=C(N)Oc2cc(O)ccc2C1c1ccco1 (stereo not given)
- IC50 [2]: 50.32 µg/mL (≈ 198 µM)

SMILES: Nc1ncnc2c1C(c1cc(Cl)ccc1O)c1ccc(O)cc1O2 (stereo not given)
- IC50 [2]: 50.32 µg/mL (≈ 147 µM)

SMILES: Cn1c2c(c(=O)n(C)c1=O)C(c1ccc(O)cc1)C(C#N)=C(N)O2 (stereo not given)
- pIC50 (Urease): 3.97

SMILES: O=C1Nc2c(c(=O)oc3ccccc23)C(c2ccc(O)cc2)N1 (stereo not given)
- pIC50 (MCF7 [7]): 4.42
- pIC50 (HeLa): 4.42

SMILES: COc1ccc(C2c3[nH]c(=O)[nH]c(=O)c3Oc3c2c(=O)oc2ccccc32)cc1 (stereo not given)
- inhibition (Capra hircus): 44%
- Activity [8]: 54.3%
- Activity [9]: 59.1%

SMILES: O=c1[nH]c2c(c(=O)[nH]1)Oc1c(c(=O)oc3ccccc13)C2c1ccccc1Cl (stereo not given)
- inhibition (Capra hircus): 46%
- Activity [8]: 67.2%
- Activity [9]: 72.4%

SMILES: Nc1nn(-c2cc([N+](=O)[O-])ccc2[N+](=O)[O-])c2c1Oc1[nH]c(=O)[nH]c(=O)c1C2c1cccs1 (stereo not given)
- pIC50 (HCT-116): 5.55
- pIC50 (MCF7 [10]): 5.50

SMILES: O=c1c(O)c(-c2ccc(O)c(O)c2)oc2cc(O)cc(O)c12
- inhibition (Capra hircus): 92%
